The results in this text go back to PubChem BioAssay (NCI).

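Following 48 hours of exposure in 96-well plates, responses at five concentrations were used to interpolate endpoints linearly. GI50 = concentration required for 50% inhibition of growth. TGI marks complete inhibition of growth.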 Bounds are passed on as bounds.

Common to all, as to assay: NCI tumour cell line growth inhibition, 48 h
The test system of assay [1] is RPMI-8226 leukemia.
The test system of assay [2] is K-562 leukemia.
The subject of assay [3] is IGROV1 ovarian.
Assay [4] concerns SF-268 CNS.
The subject of assay [5] is HCC-2998 colon.
Assay [6] relates to SK-MEL-5 melanoma.
Assay [7] has as its system SNB-75 CNS.
In assay [8] the test system is A498 renal.
Assay [9] has as its system SK-MEL-28 melanoma.
Assay [10] concerns RXF 393 renal.

As to `COc1cc(CNc2cnc3cc(N)cc(N)c3n2)cc(OC)c1`, the GI50 is 6 µM in [1]; 11.3 µM in assay [2]; 33.6 µM in [3]; 15.8 µM in assay [4]; 11.7 µM in [5]; 18.7 µM in assay [6]. Also, the TGI in assay [1] is 20 µM; in assay [2], 47 µM; in [3] it was more than 100 µM; in assay [4], 37.7 µM; in [5] it was 25 µM; in assay [6], 36.1 µM.

For the molecule `CCCCCCCCCCCOc1ccc(C(=O)C(=O)c2ccc(OCCCCCCCCCCC)c(OCCCCCCCCCCC)c2)cc1OCCCCCCCCCCC`, the TGI is more than 100 µM in [1]; more than 100 µM in assay [2]; 95.7 µM in [7]; more than 100 µM in assay [8]; more than 100 µM in assay [3]; more than 100 µM in [4]. Also, the TGI in assay [9], in [5] and in [6] was more than 100 µM throughout.

Consider `COc1ccc(-c2nc3sccn3c2/C(N)=N/C(=N)N)cc1OC`, for which the GI50 in assay [1] is 58.5 µM; in assay [2], 27.6 µM; in assay [8] it was more than 100 µM; in [10] it was more than 100 µM; in assay [3], 3.26 µM; in assay [4], 50.3 µM. For the same molecule, the GI50 is 32.5 µM in [9], 43.1 µM in [5] and 21.3 µM in assay [6]. Further, the TGI was more than 100 µM in assay [1]; more than 100 µM in assay [2]; more than 100 µM in assay [8]; more than 100 µM in assay [10]; 7.11 µM in assay [3]; more than 100 µM in assay [4]. Further, the TGI is more than 100 µM in [9], more than 100 µM in [5] and 44.5 µM in [6].

As for `O=C(Nc1ccccc1)NS(=O)(=O)c1ccc(-n2nc3c(c2-c2cccs2)Cc2ccccc2-3)cc1`, the GI50 is 5.49 µM in assay [1]; 14 µM in assay [2]; 70.4 µM in assay [7]; 85.3 µM in assay [10]; 21.4 µM in [3]; 26 µM in assay [4]. The GI50 is 50.2 µM in [9], 15.3 µM in [5] and 15.6 µM in assay [6]. Moreover, the TGI in [1] is 66.4 µM; in [2] it was 76.2 µM; in [7] it was more than 100 µM; in assay [10], more than 100 µM; in [3] it was more than 100 µM; in assay [4], more than 100 µM. Also, the TGI was more than 100 µM in [9], 31.8 µM in [5] and 31.5 µM in [6].

Regarding `CN(C)C(=N)c1ccccc1`, the TGI in assay [7], in assay [10], in [9] and in [5] was more than 100 µM in each case.

Regarding `CC1=C(C(=O)Nc2ccc(Cl)c(Cl)c2)C(c2cccc(Oc3ccccc3)c2)NC(=S)N1` (stereo unspecified), the GI50 in [1] was 11.2 µM; in assay [2] it was 12.4 µM; in [7], 8.26 µM; in [10], 7.33 µM; in assay [3], 7.72 µM; in assay [4] it was 6.1 µM. Besides, the GI50 in assay [6] is 7.89 µM. For the same molecule, the TGI in [1] is more than 50 µM; in [2] it was more than 50 µM; in [7], 18.4 µM; in assay [10], 22.1 µM; in [3], 19 µM; in assay [4], 12.9 µM. The TGI in assay [6] was found to be 15 µM.

`COc1cc2c(cc1OC)-c1c3cc(O)ccc3nn[n+]1CC2`: the TGI in assay [1], in assay [2], in assay [7], in assay [10], in assay [3] and in assay [4] was more than 100 µM throughout. Besides, the TGI in assay [9], in assay [5] and in [6] was more than 100 µM throughout.

For `NC(Cc1c[nH]c2c(O)cccc12)C(=O)O` (stereo unspecified), the GI50 in [1], in [2], in [7], in assay [3], in assay [4] and in assay [9] was more than 100 µM each time. Further, the results for the GI50 in assay [5] and in assay [6] were more than 100 µM and 49.6 µM, respectively. Besides, the TGI in [1], in [2], in [7], in assay [3], in assay [4] and in assay [9] was more than 100 µM throughout. Besides, the TGI in [5] and in [6] was more than 100 µM in each case.

Consider `CN(C)CC[N+]1=Nc2cccc3cccc(c23)N1`, for which the TGI in assay [1] is more than 66.8 µM; in [2], more than 63.4 µM; in [7] it was more than 100 µM; in [8], more than 100 µM; in assay [3] it was more than 100 µM; in assay [4], more than 100 µM. Moreover, the TGI in assay [9], in [5] and in assay [6] was more than 100 µM in each case.

`CN1C(=O)C(C)(C)C2(SC(C)(C)C2(C)C)N(C)C1=S` (stereo unspecified): the TGI in [1], in assay [2], in assay [7], in [10], in assay [3] and in assay [4] was more than 100 µM each time. The TGI in [9] and in assay [5] was more than 100 µM each time.

In the case of `CC(C)C/C(CC(=O)CCC(=O)Nc1ccccc1[N+](=O)[O-])=N\NC(=O)c1cc2ccccc2cc1O`, the TGI in [1], in [2], in assay [7], in [10], in assay [3] and in [4] was more than 100 µM each time. For the same molecule, the results for the TGI in [9], in assay [5] and in assay [6] were more than 100 µM, more than 100 µM and 67.5 µM, respectively.
